Experimental findings from patent US8299265B2, “Amine derivatives having NPY Y5 receptor antagonistic activity and the uses thereof” (Shionogi & Co., Ltd., priority 2007, dated 2012) are described below.

In one data set the test system is male C57BL/6J mice. The experiment in a line: Inhibition of Y5 agonist-induced food intake in mice. The data set is classed as in vivo. Particulars: Mus musculus, 4 hours after dosing, read-out: Inhibition ratio of Y5 agonist-induced food intake; for inhibition in vivo at 6 mg/kg: unmarked cells. The method, then:
Under diethylether anesthesia the skull of male C57BL/6J mice (12-14 week old, 25-30 g) was exposed by making an incision about 1-cm long from external occipital crest to nasal dorsum, and then drilled in the 1-mm lateral position to the left following 1-mm posterior from bregma. After recovery from anesthesia mice were dosed with either 0.5% hydroxypropylmethyl cellulose solution (vehicle, Shin-Etsu Chemical Co., Ltd) or the compounds of this invention suspended in the 0.5% hydroxypropylmethyl cellulose solution. At one hour after the treatment, each animal received saline or a NPY Y5 receptor specific agonist, [cPP^1-7, NPY^19-23, Ala^31, Aib^32, Gln^34]-hPancreatic Polypeptide (0.1 nmol/1.5 μL saline/mouse) through the skull opening using a canula. Residual food was measured at 2 and 4 hours after the treatment.

The next data set deals with T1, P-gp (Mus musculus, UniProt P21447).
T1 construct: from tissue; host or cells: living mice (Jcl; C57BL/6J, male, 7 weeks), brain / blood-brain barrier
T1 sequence (P21447 whole entry): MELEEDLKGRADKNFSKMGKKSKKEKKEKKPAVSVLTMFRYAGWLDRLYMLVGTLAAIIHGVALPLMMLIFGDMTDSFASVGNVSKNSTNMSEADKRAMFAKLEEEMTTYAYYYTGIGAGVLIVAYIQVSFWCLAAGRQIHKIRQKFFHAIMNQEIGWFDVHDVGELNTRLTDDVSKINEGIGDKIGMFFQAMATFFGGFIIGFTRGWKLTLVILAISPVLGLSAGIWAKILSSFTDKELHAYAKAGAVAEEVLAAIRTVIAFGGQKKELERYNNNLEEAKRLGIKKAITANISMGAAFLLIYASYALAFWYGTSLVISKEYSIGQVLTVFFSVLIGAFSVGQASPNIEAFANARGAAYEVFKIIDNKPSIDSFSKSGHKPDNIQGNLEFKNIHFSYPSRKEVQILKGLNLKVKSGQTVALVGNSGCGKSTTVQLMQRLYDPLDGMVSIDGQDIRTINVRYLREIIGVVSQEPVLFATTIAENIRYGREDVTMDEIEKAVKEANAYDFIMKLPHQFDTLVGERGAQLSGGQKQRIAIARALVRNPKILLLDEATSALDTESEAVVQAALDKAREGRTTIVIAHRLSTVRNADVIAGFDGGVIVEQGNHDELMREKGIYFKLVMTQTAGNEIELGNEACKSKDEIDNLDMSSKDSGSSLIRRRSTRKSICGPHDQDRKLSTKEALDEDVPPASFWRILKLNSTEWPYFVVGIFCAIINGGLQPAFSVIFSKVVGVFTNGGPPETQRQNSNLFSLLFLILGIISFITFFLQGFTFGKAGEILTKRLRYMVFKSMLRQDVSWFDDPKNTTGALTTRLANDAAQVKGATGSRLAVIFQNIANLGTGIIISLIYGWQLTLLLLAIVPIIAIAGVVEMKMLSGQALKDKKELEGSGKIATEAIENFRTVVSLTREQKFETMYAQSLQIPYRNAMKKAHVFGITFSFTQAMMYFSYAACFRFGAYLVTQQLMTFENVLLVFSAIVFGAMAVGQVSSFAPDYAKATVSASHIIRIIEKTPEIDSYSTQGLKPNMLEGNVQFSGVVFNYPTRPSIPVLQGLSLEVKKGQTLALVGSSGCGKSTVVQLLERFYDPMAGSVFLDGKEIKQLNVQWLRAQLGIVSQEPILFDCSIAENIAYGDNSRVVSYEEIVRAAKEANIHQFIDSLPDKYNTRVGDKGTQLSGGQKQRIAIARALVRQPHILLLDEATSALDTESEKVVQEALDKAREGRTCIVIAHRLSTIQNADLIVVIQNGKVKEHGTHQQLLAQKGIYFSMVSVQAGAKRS
The experiment in a line: Potential for drug-drug interactions through P-gp in vivo (Kp with or without cyclosporin A). To be noted: mice, Kp with versus without cyclosporin A (20 mg/kg). Here is the method: Transportability of the compounds of this invention through the blood-brain barrier (blood-brain partition coefficient; Kp) in mice (Jcl; C57BL/6J mice, ♂, 7 weeks) was defined from the difference in concentration of the compounds between in plasma and in brain after intravenous administration of the compounds (0.5 mg/2 mL/kg). The brain Kp value of Compound (I-72) (Kp Cont.) was 1.29 showing high transportability through the blood-brain barrier.
To examine the potential for drug-drug interactions through P-gp in vivo, the Kp values of compounds of this invention with (KpCSA) or without (KpCont.) cyclosporin A (20 mg/kg), a P-gp inhibitor, were calculated. The KpCSA value of Compound (I-72) was 1.14, and the calculated KpCSA KpCont. ratio was 0.9.
On the other hand the potential for drug-drug interactions through P-pg of amide compound B which has similar structure of Compound (I-72) was also examined in mice. The KpCont. and KpCSA were 0.04 and 0.84, respectively.

Another data set has as its target T2, mouse NPY Y5 receptor (Mus musculus, UniProt O70342).
T2 construct: expressed in transfected cells; membranes used
T2 sequence (O70342 1-466): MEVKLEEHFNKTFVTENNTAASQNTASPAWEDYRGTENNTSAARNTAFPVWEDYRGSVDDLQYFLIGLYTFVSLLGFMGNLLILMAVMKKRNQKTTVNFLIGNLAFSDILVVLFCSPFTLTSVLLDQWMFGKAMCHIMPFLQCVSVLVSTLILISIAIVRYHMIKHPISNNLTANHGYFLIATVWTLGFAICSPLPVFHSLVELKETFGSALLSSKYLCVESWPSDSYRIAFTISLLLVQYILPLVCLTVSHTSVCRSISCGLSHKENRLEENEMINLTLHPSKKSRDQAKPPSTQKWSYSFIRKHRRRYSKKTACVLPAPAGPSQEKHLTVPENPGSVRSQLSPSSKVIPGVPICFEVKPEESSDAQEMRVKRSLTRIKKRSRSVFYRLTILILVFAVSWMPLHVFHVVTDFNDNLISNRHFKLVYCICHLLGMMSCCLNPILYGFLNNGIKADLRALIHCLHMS
The data set can be described thus: Affinity for mouse NPY Y5 receptor ([125I] peptide YY binding, CHO cell membranes). To be noted: membranes of CHO cells expressing mouse NPY Y5 receptor. The source says: cDNA sequence encoding a mouse NPY Y5 receptor (Biochim. Biophys. Acta 1328, 83-89, 1997) was cloned in a vector (pME18S, Takebe et al. Mol. Cell. Biol. 8, 466-472). The obtained expression vector was transfected into CHO cells as a host by using Lipofect AMINE reagent (Trademark, Gico BRL Co., Ltd.) according to the instruction manual. The cells that stably express NPY Y5 receptor were obtained.
The membranes prepared from the CHO cells expressing NPY Y5 receptor, the compound of this invention and 30,000 cpm [^125I] peptide YY (60 pM of final concentration: Amersham) were incubated in the assay buffer (20 mM HEPES-Hanks buffer containing 0.1% bovine serum albumin, pH 7.4) at 25° C. for 2 hours, and then the membrane was filtered from the mixture through a glassfilter (GF/C) presoaked with 1% polyethyleneimine. After washing with 50 mM Tris-HCl buffer (pH 7.4), radioactivity retained on the filters was quantified with a gamma counter.
Nonspecific binding was defined as the amount of radioactivity bound to the membranes after incubation in the presence of 200 nM of peptide YY. The 50% inhibitory concentration of the test compound against the specific peptide YY binding (IC50 value) was calculated (Inui, A. et al. Endocrinology 131, 2090-2096 (1992)).

The test system of data set [1] is high-fat diet-induced obese mice. The data set can be described thus: Suppression of body weight gain in high-fat diet-induced obese mice. The data set is classed as in vivo. Particulars: 6 mg/kg b.i.d. for 3 weeks, compared to vehicle. Here is the method:
Prior to administration of the compounds of this invention, male C57BL/6J mice were given a high-fat diet to induce obese. The high-fat diet-induced obese mice (13-14 week old, body weight 28-33 g) were dosed with 0.5% hydroxypropylmethyl cellulose solution (vehicle, Shin-Etsu Chemical Co., Ltd) or the compounds of this invention suspended in the 0.5% hydroxypropylmethyl cellulose solution twice a day (b.i.d.) for 3 weeks with the same diet. The changes in body weight were monitored daily.

For the molecule `CCC(C)S(=O)(=O)NC[C@H]1CC[C@H](Nc2nc3cc(F)ccc3o2)CC1` (stereo partly drawn) [Ij-160], in the data set on male C57BL/6J mice, the inhibition in vivo at 1.5 mg/kg stood at 36.6%.
With `CC(C)S(=O)(=O)N[C@H]1CC[C@H](CNc2cc(F)cc(N3CCOCC3)c2)CC1` [Ii-55], the inhibition in vivo at 6 mg/kg in the data set with male C57BL/6J mice was determined as 64.3%.
As for `CC(C)S(=O)(=O)NC[C@H]1CC[C@H](Nc2nc3cc(Cl)ccc3s2)CC1` [Ij-154], the melting point (commonly the temperature of the solid-liquid transition) was 166 to 167 °C. In the data set with male C57BL/6J mice, the inhibition in vivo at 6 mg/kg was 81.3%.
With `CC(C)(C)S(=O)(=O)NC[C@H]1CC[C@H](Nc2nc3ccc(F)cc3o2)CC1` [Ij-159], in the data set with male C57BL/6J mice, the inhibition in vivo at 6 mg/kg amounted to 83.2%.
With `CC(C)(C)S(=O)(=O)NC[C@H]1CC[C@H](Nc2ccn(-c3ccccc3F)n2)CC1` [Ij-110], in the data set with male C57BL/6J mice, the inhibition in vivo at 6 mg/kg worked out at 90.3%.
Same read-out and setting: to `CC(C)S(=O)(=O)NC[C@H]1CC[C@H](Nc2nc3cccc(F)c3s2)CC1` [Ij-153] belongs 73%.
For the molecule `CC(C)(C)S(=O)(=O)NC[C@H]1CC[C@H](Nc2nc3cc(F)ccc3o2)CC1` [Ij-158], the melting point lay within 220 to 221 °C. Besides, the inhibition in vivo at 6 mg/kg in the data set with male C57BL/6J mice was determined as 70.5%.
`C[C@@H]1CN(c2ccc(NC(=O)[C@H]3CC[C@H](NS(=O)(=O)C(C)(C)C)CC3)cc2)C[C@H](C)O1` [amide compound B, reference compound]: on P-gp, the KpCSA/KpCont. ratio is 20.5.
With `CCS(=O)(=O)N[C@H]1CC[C@H](CNc2cc(-c3ccccc3)on2)CC1` [Ii-44], the IC50 (in general, the concentration that gives 50% inhibition) on mouse NPY Y5 receptor is 3.4 nM. This counts as single-digit nanomolar.
Turning to `CC(C)S(=O)(=O)NC[C@H]1CC[C@H](Nc2nc3ccc(F)cc3s2)CC1` [Ij-152], the melting point was 151 to 152 °C. The inhibition in vivo at 1.5 mg/kg with male C57BL/6J mice came out at 62.6%.
`CCC(C)S(=O)(=O)NC[C@H]1CC[C@H](Nc2nc3ccc(F)cc3o2)CC1` (stereo partly drawn) [Ij-161] displayed a melting point of 173 to 174 °C. For the same molecule, the inhibition in vivo at 1.5 mg/kg in the data set with male C57BL/6J mice turned out to be 15.8%.
Consider `CC(C)S(=O)(=O)NC[C@H]1CC[C@H](Nc2nc3cc(F)ccc3o2)CC1` [Ij-155], for which, in the data set with male C57BL/6J mice, the inhibition in vivo at 1.5 mg/kg is 56.1%.
In the case of `C[C@@H]1CN(c2ccc(NC[C@H]3CC[C@H](NS(=O)(=O)C(C)(C)C)CC3)cc2)C[C@H](C)O1` [Compound I-72], the KpCSA/KpCont. ratio at P-gp came out at 0.9.
For `CCS(=O)(=O)NC[C@H]1CC[C@H](Nc2ccn(-c3ccccc3F)n2)CC1` [Ij-112], the Body weight gain result in data set [1] was “suppresses Body Weight Gain”.
For `CCS(=O)(=O)NC[C@H]1CC[C@H](Nc2ccc(-c3ccccc3)cn2)CC1` [Ij-4], in the data set on male C57BL/6J mice, the inhibition in vivo at 6 mg/kg was 88.2%.
As to `CCS(=O)(=O)NC[C@H]1CC[C@H](Nc2nc3ccccc3o2)CC1` [Ij-150], the melting point lay in the range of 170 to 171 °C. Moreover, the inhibition in vivo at 6 mg/kg with male C57BL/6J mice came to 25.3%.
`CC(C)S(=O)(=O)NC[C@H]1CC[C@H](Nc2nc3cc(F)ccc3s2)CC1` [Ij-151]: the melting point fell in the range of 165 to 166 °C. Further, the inhibition in vivo at 1.5 mg/kg with male C57BL/6J mice was 78.4%.
With `Cn1c(=O)oc2cc(NC[C@H]3CC[C@H](NS(=O)(=O)C(C)(C)C)CC3)cc(F)c21` [Ii-45], the Body weight gain result in data set [1] is on record as “suppresses Body Weight Gain”. In the data set with male C57BL/6J mice, the inhibition in vivo at 6 mg/kg was 76.2%.
For the molecule `CC(C)S(=O)(=O)NC[C@H]1CC[C@H](Nc2nc3ccc(F)cc3o2)CC1` [Ij-156], the melting point was in the range of 170 to 171 °C. Besides, the inhibition in vivo at 12.5 mg/kg with male C57BL/6J mice (**Dose: 12.5 mg/kg) is 90.4%.
